Our source for the Ki values is BindingDB's records for patent US12208088 (Genentech, 2025).

The target in the assay is Mitogen-activated protein kinase kinase kinase kinase 1 (Homo sapiens, UniProt Q92918). In words: HPK1 Lantha Binding Assay. As for the experimental part: For the binding assay, 4 ul 2×HPK1 and Eu-anti-GST antibody were added to each well of the assay plate using a Multidrop reagent dispenser. The solutions were incubated in a 23 C incubator for 1 h. To each well of the assay plate was added 4 ul 2× Tracer-222 using a Multidrop reagent dispenser. The solutions were again incubated in a 23 C incubator for 1 h. The results of the assay were read using an Envision plate reader with the following parameters: TR_FRET, 340 ex/615 and 665em; 100 usec Delay; and 200 usec integration.
Mitogen-activated protein kinase kinase kinase kinase 1, sequence (Q92918 whole entry): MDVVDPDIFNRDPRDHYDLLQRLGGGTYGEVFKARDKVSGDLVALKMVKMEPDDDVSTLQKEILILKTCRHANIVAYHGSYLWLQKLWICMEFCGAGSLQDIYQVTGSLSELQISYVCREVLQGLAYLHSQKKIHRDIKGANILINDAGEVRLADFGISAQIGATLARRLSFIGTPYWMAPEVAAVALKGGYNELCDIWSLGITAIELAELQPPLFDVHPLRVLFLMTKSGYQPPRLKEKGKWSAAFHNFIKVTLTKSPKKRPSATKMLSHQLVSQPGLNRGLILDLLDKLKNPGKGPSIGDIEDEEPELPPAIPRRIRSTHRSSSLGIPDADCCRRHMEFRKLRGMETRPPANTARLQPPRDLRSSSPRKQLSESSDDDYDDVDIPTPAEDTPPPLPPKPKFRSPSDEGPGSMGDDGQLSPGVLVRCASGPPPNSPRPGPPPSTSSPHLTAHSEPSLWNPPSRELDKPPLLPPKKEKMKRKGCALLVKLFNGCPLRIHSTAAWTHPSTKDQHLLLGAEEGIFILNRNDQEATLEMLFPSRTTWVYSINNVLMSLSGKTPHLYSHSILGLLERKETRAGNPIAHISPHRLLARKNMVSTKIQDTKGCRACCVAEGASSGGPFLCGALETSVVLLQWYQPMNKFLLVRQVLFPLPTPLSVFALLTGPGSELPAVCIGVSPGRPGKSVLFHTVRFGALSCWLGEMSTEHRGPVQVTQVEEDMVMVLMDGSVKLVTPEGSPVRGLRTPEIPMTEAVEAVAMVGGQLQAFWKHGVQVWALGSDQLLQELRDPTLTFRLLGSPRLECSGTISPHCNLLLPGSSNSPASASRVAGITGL
`CC1CNC(=O)N1c1c(N)ccc(-c2cnc3c(c2Cl)C2(CC2)CN3)c1F` (configuration not stated) [US12208088, Compound 25] returned a Ki of 0.0439 µM.

`CN(CC(C)(C)O)C(=O)c1c(N)ccc(-c2cnc3c(c2Cl)C2(CC2)CN3)c1F` [US12208088, Compound 35] registered an inhibition constant Ki of 0.0228 µM.

As to `CC(=O)Nc1cc(C(=O)N(C)C)cc(-c2cnc3c(c2Cl)C2(CC2)CN3)c1` [US12208088, Compound 33], the affinity corresponds to a Ki of 0.771 µM.

Turning to `CN(C)C(=O)c1ccc(-c2cnc3c(c2Cl)C2(CC=CC2)CN3)cc1Cl` [US12208088, Compound 192], affinity was put at a Ki of 0.163 µM.

`O=C1NCCC1c1cccc(-c2cnc3c(c2)C2(CC2)CN3)c1F` (configuration not stated) [US12208088, Compound 92]: the Ki turned out to be 0.0284 µM.

As to `CN(C)C(=O)c1c(N)ccc(-c2cnc3c(c2Cl)C2(CCC(Cn4cncn4)C2)CN3)c1F` (configuration not stated) [US12208088, Compound 129], the Ki was 0.0234 µM.

On to `N#CC1CCCCN1C(=O)c1cccc(-c2cnc3c(c2Cl)C2(CC=CC2)CN3)c1F` (configuration not stated) [US12208088, Compound 264], for which the affinity, expressed as Ki, was 0.0115 µM.
